Tests used:
[1] = absolute recovery over vacuum-assisted evaporative concentration; higher = better recovery; details: enrichment method: VEC
Procedure, shortened: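 Samples of influent (6 mL), effluent (15 mL) and surface or nanopure water (60 mL) were spiked with standards before or after concentration, or left unspiked, at 200 ng/L (nanopure/surface) or 1000 ng/L (wastewater), adjusted by class and compound. Concentration was by evaporation at 55 °C and 20 mbar to about 0.3 mL, followed by adjustment to 0.4 mL and centrifugation. Internal standards were then added for LC-HRMS/MS analysis. Absolute recovery was (response ratio pre − unspiked)/(post − unspiked) × 100, using averages of ≥ 2 replicates.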

[2] = absolute recovery over mixed-bed multilayer solid-phase extraction; higher = better recovery; details: enrichment method: SPE
Procedure, shortened: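 Absolute recovery rests on background-corrected response ratios of pre- versus post-spiked samples, averaged over at least two replicates. Wastewater (100–250 mL, pH 6.5, glass-fibre filtered) was spiked at 1000 ng/L and unfiltered nanopure water (1000 mL) at 200 ng/L, before or after three-layer mixed-bed cartridge extraction or not at all, with exceptions for some classes. Analysis after internal standard addition used liquid chromatography with high-resolution tandem mass spectrometry in both ionisation modes.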

[3] = LC retention time (Atlantis T3, 5-95% MeOH gradient, 0.1% formic acid); higher = more retained / less polar
Procedure, shortened: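 Retention times were recorded for reference standards (purity ≥ 95%) on a polar reversed-phase C18 column (Atlantis T3, 3 × 150 mm, 3 μm) at 0.3 mL/min. Elution used water and methanol, each with 0.1% formic acid, in a gradient from 5 to 95% methanol over 17.5 min. Detection was by high-resolution tandem mass spectrometry on a QExactive Plus, with positive and negative electrospray in separate runs. Peaks were found and integrated in TraceFinder (5 ppm tolerance, at least three points per peak) and then checked by hand.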

c1ccc2[nH]nnc2c1 [Benzotriazol]
absolute recovery ([1]; wastewater effluent): 104% | absolute recovery ([1]; wastewater influent): 102% | absolute recovery ([2]; nanopure water): 99.4% | absolute recovery ([2]; wastewater influent): 95.1% | LC retention time [3]: 13.4 min

CCOCN(C(=O)CCl)c1c(C)cccc1CC [Acetochlor B]
absolute recovery ([1]; wastewater effluent): 83.4% | absolute recovery ([1]; wastewater influent): 76.8% | absolute recovery ([2]; nanopure water): 94% | absolute recovery ([2]; surface water): 93.3% | absolute recovery ([2]; wastewater effluent): 91.1% | absolute recovery ([2]; wastewater influent): 91.6% | LC retention time [3]: 20.4 min

[NH3+]C(Cc1cc(I)c(O)c(I)c1)C(=O)[O-] [3-5-Diiodo-L-tyrosine]
absolute recovery ([1]; wastewater effluent): 90.5% | absolute recovery ([1]; wastewater influent): 96.4% | absolute recovery ([2]; nanopure water): 69.5% | absolute recovery ([2]; surface water): 39.2% | absolute recovery ([2]; wastewater effluent): 55.8% | absolute recovery ([2]; wastewater influent): 74.5% | LC retention time [3]: 13.2 min

CCC1OC(=O)C(C)C(OC2CC(C)(OC)C(O)C(C)O2)C(C)C(OC2OC(C)CC([NH+](C)C)C2O)C(C)(O)CC(C)C(=NOCOCCOC)C(C)C(O)C1(C)O (stereo unspecified) [Roxithromycin]
absolute recovery ([1]; wastewater effluent): 90.2% | absolute recovery ([1]; wastewater influent): 90.4% | absolute recovery ([2]; nanopure water): 80.1% | absolute recovery ([2]; surface water): 95.7% | absolute recovery ([2]; wastewater effluent): 87.5% | absolute recovery ([2]; wastewater influent): 98.8% | LC retention time [3]: 17 min

CCOc1nc2cccc(C(=O)[O-])c2n1Cc1ccc(-c2ccccc2-c2nnn[n-]2)cc1 [Candesartan]
absolute recovery ([1]; wastewater effluent): 104% | absolute recovery ([1]; wastewater influent): 99.4% | absolute recovery ([2]; nanopure water): 96.9% | absolute recovery ([2]; surface water): 97.3% | absolute recovery ([2]; wastewater effluent): 90.7% | absolute recovery ([2]; wastewater influent): 92.5% | LC retention time [3]: 18.7 min

CC([NH3+])C12CC3CC(CC(C3)C1)C2 (stereo unspecified) [Rimantadin]
absolute recovery ([1]; wastewater effluent): 105% | absolute recovery ([1]; wastewater influent): 112% | absolute recovery ([2]; nanopure water): 71.9% | absolute recovery ([2]; surface water): 76.1% | absolute recovery ([2]; wastewater effluent): 72.9% | absolute recovery ([2]; wastewater influent): 71.4% | LC retention time [3]: 14.6 min

C[NH2+]CCC(Oc1ccc(C(F)(F)F)cc1)c1ccccc1 (stereo unspecified) [Fluoxetin]
absolute recovery ([1]; wastewater effluent): 91.1% | absolute recovery ([1]; wastewater influent): 91.9% | absolute recovery ([2]; nanopure water): 79.8% | absolute recovery ([2]; surface water): 90.2% | absolute recovery ([2]; wastewater effluent): 85.5% | absolute recovery ([2]; wastewater influent): 82.8% | LC retention time [3]: 16.2 min

CSc1nc2cc(Oc3cccc(Cl)c3Cl)c(Cl)cc2[nH]1 [Triclabendazol]
absolute recovery ([1]; wastewater effluent): 86.4% | absolute recovery ([1]; wastewater influent): 102% | absolute recovery ([2]; nanopure water): 59.4% | absolute recovery ([2]; surface water): 111% | absolute recovery ([2]; wastewater effluent): 88.5% | absolute recovery ([2]; wastewater influent): 61.3% | LC retention time [3]: 21.8 min

COc1ccc(CCC(=O)c2c(O)cc(OC3OC(CO)C(O)C(O)C3OC3OC(C)C(O)C(O)C3O)cc2O)cc1O (stereo unspecified) [Neohesperidin-dihydrochalcon]
absolute recovery ([1]; wastewater effluent): 51.7% | absolute recovery ([1]; wastewater influent): 49.7% | absolute recovery ([2]; nanopure water): 71.4% | absolute recovery ([2]; surface water): 78.7% | absolute recovery ([2]; wastewater effluent): 90.1% | absolute recovery ([2]; wastewater influent): 85% | LC retention time [3]: 16.3 min

O=P1(N(CCCl)CCCl)NCCCO1 (stereo unspecified) [Cyclophosphamid]
absolute recovery ([1]; wastewater effluent): 104% | absolute recovery ([1]; wastewater influent): 100% | absolute recovery ([2]; nanopure water): 98.1% | absolute recovery ([2]; surface water): 96.4% | absolute recovery ([2]; wastewater effluent): 93.9% | absolute recovery ([2]; wastewater influent): 94.5% | LC retention time [3]: 16.1 min

CON=C(C(=O)OC)c1ccccc1COc1ccccc1C [Kresoxim-methyl]
absolute recovery ([1]; wastewater effluent): 98.9% | absolute recovery ([1]; wastewater influent): 89.9% | absolute recovery ([2]; nanopure water): 103% | absolute recovery ([2]; surface water): 110% | absolute recovery ([2]; wastewater effluent): 103% | absolute recovery ([2]; wastewater influent): 93.5% | LC retention time [3]: 20.7 min

Cc1cc(C2CC2)nc(Nc2ccccc2)n1 [Cyprodinil]
absolute recovery ([1]; wastewater effluent): 86.9% | absolute recovery ([1]; wastewater influent): 88.2% | absolute recovery ([2]; nanopure water): 100% | absolute recovery ([2]; surface water): 93.8% | absolute recovery ([2]; wastewater effluent): 92.5% | absolute recovery ([2]; wastewater influent): 89.9% | LC retention time [3]: 19.8 min

CC(C)(C)[NH2+]CC(O)COc1nsnc1N1CCOCC1 (stereo unspecified) [Timolol]
absolute recovery ([1]; wastewater effluent): 106% | absolute recovery ([1]; wastewater influent): 103% | absolute recovery ([2]; nanopure water): 82.7% | absolute recovery ([2]; surface water): 83.1% | absolute recovery ([2]; wastewater effluent): 86.3% | absolute recovery ([2]; wastewater influent): 83.9% | LC retention time [3]: 12.3 min

COc1cc(OC)nc(NC(=O)[N-]S(=O)(=O)c2ncccc2C(=O)N(C)C)n1 [Nicosulfuron]
absolute recovery ([1]; wastewater effluent): 103% | absolute recovery ([1]; wastewater influent): 102% | absolute recovery ([2]; nanopure water): 95.8% | absolute recovery ([2]; surface water): 97.3% | absolute recovery ([2]; wastewater effluent): 96.2% | absolute recovery ([2]; wastewater influent): 95.7% | LC retention time [3]: 16.9 min

C=CCOc1ccccc1OCC(O)C[NH2+]C(C)C (stereo unspecified) [Oxprenolol]
absolute recovery ([1]; wastewater effluent): 105% | absolute recovery ([1]; wastewater influent): 107% | absolute recovery ([2]; nanopure water): 78.4% | absolute recovery ([2]; surface water): 82.4% | absolute recovery ([2]; wastewater effluent): 85.9% | absolute recovery ([2]; wastewater influent): 87.2% | LC retention time [3]: 13.4 min

CC(=O)NCC1CN(c2ccc(N3CCOCC3)c(F)c2)C(=O)O1 (stereo unspecified) [Linezolid]
absolute recovery ([1]; wastewater effluent): 103% | absolute recovery ([1]; wastewater influent): 100% | absolute recovery ([2]; nanopure water): 92.3% | absolute recovery ([2]; surface water): 90.5% | absolute recovery ([2]; wastewater effluent): 92% | absolute recovery ([2]; wastewater influent): 99.5% | LC retention time [3]: 14.9 min

CC(=O)N(CC(O)CO)c1c(I)c(C(=O)NCC(O)CO)c(I)c(C(=O)NCC(O)CO)c1I (stereo unspecified) [Iohexol]
absolute recovery ([1]; wastewater effluent): 102% | absolute recovery ([1]; wastewater influent): 98.3% | absolute recovery ([2]; nanopure water): 68.2% | absolute recovery ([2]; surface water): 73.1% | absolute recovery ([2]; wastewater effluent): 66.4% | absolute recovery ([2]; wastewater influent): 56.8% | LC retention time [3]: 8.81 min

CCCC1COC(Cn2cncn2)(c2ccc(Cl)cc2Cl)O1 (stereo unspecified) [Propiconazol]
absolute recovery ([1]; wastewater effluent): 104% | absolute recovery ([1]; wastewater influent): 101% | absolute recovery ([2]; nanopure water): 97.2% | absolute recovery ([2]; surface water): 94.8% | absolute recovery ([2]; wastewater effluent): 91.8% | LC retention time [3]: 21.1 min

COC(=O)c1ccccc1S(=O)(=O)[N-]C(=O)Nc1nc(C)nc(OC)n1 [Metsulfuron-methyl]
absolute recovery ([1]; wastewater effluent): 102% | absolute recovery ([1]; wastewater influent): 105% | absolute recovery ([2]; nanopure water): 98.1% | absolute recovery ([2]; surface water): 95.2% | absolute recovery ([2]; wastewater effluent): 95.9% | LC retention time [3]: 17 min

CN(C)c1nc(=O)n(C2CCCCC2)c(=O)n1C [Hexazinon]
absolute recovery ([1]; wastewater effluent): 106% | absolute recovery ([1]; wastewater influent): 92.6% | absolute recovery ([2]; nanopure water): 96.4% | absolute recovery ([2]; surface water): 93.7% | absolute recovery ([2]; wastewater effluent): 94.3% | absolute recovery ([2]; wastewater influent): 88.8% | LC retention time [3]: 17.2 min

CON=C(C(=O)OC)c1ccccc1CON=C(C)c1cccc(C(F)(F)F)c1 [Trifloxystrobin]
absolute recovery ([1]; wastewater effluent): 77.4% | absolute recovery ([1]; wastewater influent): 97.5% | absolute recovery ([2]; surface water): 97.3% | absolute recovery ([2]; wastewater effluent): 88.9% | absolute recovery ([2]; wastewater influent): 99.8% | LC retention time [3]: 21.4 min

CC[NH+]1CCCC1CNC(=O)c1cc(S(=O)(=O)CC)c(N)cc1OC (stereo unspecified) [Amisulprid]
absolute recovery ([1]; wastewater effluent): 106% | absolute recovery ([1]; wastewater influent): 102% | absolute recovery ([2]; nanopure water): 93.1% | absolute recovery ([2]; surface water): 94.8% | absolute recovery ([2]; wastewater effluent): 93.4% | absolute recovery ([2]; wastewater influent): 92.7% | LC retention time [3]: 10.4 min

C[NH+]1C2CCC1C(C(=O)[O-])C(OC(=O)c1ccccc1)C2 (stereo unspecified) [Benzoylecgonin]
absolute recovery ([1]; wastewater effluent): 120% | absolute recovery ([1]; wastewater influent): 110% | absolute recovery ([2]; nanopure water): 97.8% | absolute recovery ([2]; surface water): 96% | absolute recovery ([2]; wastewater effluent): 94.8% | absolute recovery ([2]; wastewater influent): 95.1% | LC retention time [3]: 12.8 min

Source: the supplement of paper PMC6470124
